The values that follow come from ChEMBL document CHEMBL1240308, “Elevated levels of oxidized cholesterol metabolites in Lewy body disease brains accelerate alpha-synuclein fibrilization” (Nat Chem Biol, 2006).

Calls of active or inactive are those of the source. No cut-off for these calls is given here.

Series [1] concerns SH-SY5Y. Nature of the series: Cytotoxicity against human SH-SY5Y cells overexpressing alpha-synuclein at 20 uM after 48 hrs by LDH assay. Format: cell-based.
Series [2] concerns the target Alpha-synuclein (Homo sapiens) (UniProt P37840). Nature of the series: Induction of alpha-synuclein aggregation in PBS buffer assessed as fluorescence after 96 hrs by Thioflavin T fluorescence assay.
Series [3] shares this target. Nature of the series: Induction of alpha-synuclein aggregation in PBS buffer assessed as fluorescence after 48 hrs by Thioflavin T fluorescence assay.
The target is the same in series [4]. The experiment in a line: Induction of alpha-synuclein aggregation in PBS buffer assessed as alpha-synuclein monomer depletion after 96 hrs by size exclusion chromatography. A general note: SEC sorts molecules by how far they enter the pores of the column.
Series [5] has the same target. Nature of the series: Induction of alpha-synuclein aggregation in PBS buffer assessed as transition of alpha-synuclein from natively unfolded monomer to cross-beta-sheet conformation after 48 hrs by CD spectroscopy.
For series [6] the target is unchanged. Nature of the series: Induction of alpha-synuclein aggregation in PBS buffer assessed as fluorescence after 72 hrs by Thioflavin T fluorescence assay.
The target is the same in series [7]. Nature of the series: Induction of alpha-synuclein aggregation in PBS buffer assessed as transition of alpha-synuclein from natively unfolded monomer to cross-beta-sheet conformation after 96 hrs by CD spectroscopy.
The subject of series [8] is SH-SY5Y. Nature of the series: Cytotoxicity against human SH-SY5Y cells overexpressing alpha-synuclein at 20 uM after 48 hrs by MTT assay. Format: cell-based. On the technique in general: Tetrazolium assays rely on reduction of a dye to a coloured formazan, in cell work by metabolically active cells.
For series [9], the target named is Alpha-synuclein (Homo sapiens) (UniProt P37840). Nature of the series: Induction of alpha-synuclein aggregation in PBS buffer assessed as alpha-synuclein monomer depletion after 72 hrs by size exclusion chromatography.
Series [10] has the same target. The experiment in a line: Induction of alpha-synuclein aggregation in PBS buffer assessed as fluorescence after 330 hrs by Thioflavin T fluorescence assay.
The target is the same in series [11]. The experiment in a line: Induction of alpha-synuclein aggregation in PBS buffer assessed as transition of alpha-synuclein from natively unfolded monomer to cross-beta-sheet conformation after 72 hrs by CD spectroscopy.
Series [12] has the same target. Nature of the series: Induction of alpha-synuclein aggregation in PBS buffer assessed as alpha-synuclein monomer depletion after 48 hrs by size exclusion chromatography.
Series [13] has the same target. Nature of the series: Induction of alpha-synuclein aggregation in PBS buffer assessed as transition of alpha-synuclein from natively unfolded monomer to cross-beta-sheet conformation after 330 hrs by CD spectroscopy.
The nature of series [14]: Cytotoxicity against human SH-SY5Y cells overexpressing alpha-synuclein after 48 hrs by MTT assay. Format: cell-based. To be noted: read-out: LD50.
Series [15] in a line: Cytotoxicity against human SH-SY5Y cells overexpressing alpha-synuclein after 48 hrs by LDH assay. Format: cell-based. To be noted: read-out: LD50.
For series [16], the target named is Alpha-synuclein (Homo sapiens) (UniProt P37840). The experiment in a line: Induction of alpha-synuclein aggregation in PBS buffer assessed as fluorescence after 44 to 305 hrs in presence of competitive Schiff-base inhibitor aminoguanidine by Thioflavin T fluorescence assay.
For series [17] the target is unchanged. The experiment in a line: Induction of alpha-synuclein aggregation in PBS buffer assessed as formation of alpha-synuclein fibrils after 96 hrs by electron microscopy.
For series [18] the target is unchanged. Nature of the series: Induction of alpha-synuclein aggregation in PBS buffer assessed as formation of alpha-synuclein fibrils after 48 hrs by electron microscopy.

For `CC(C)CCC[C@@H](C)[C@H]1CC[C@H]2[C@@H]3CC=C4C[C@@H](O)CC[C@]4(C)[C@H]3CC[C@]12C` [CHOLESTEROL], the Activity result in series [1] was “Non-toxic”; in series [2], 30 a.u; in series [3], 0 a.u; in [4], 70%; in [5], 0%; in series [6], 25 a.u. Also, the Activity is 4% in series [7]; “Non-toxic” in series [8]; 19% in series [9]; 120 a.u in series [10]; 4% in series [11]; 2% in series [12]. Also, the Activity in series [13] is 100%.

Consider `CC(C)CCC[C@@H](C)[C@H]1CC[C@H]2[C@H](CC(=O)O)[C@@H]([C@@]3(C)CC[C@H](O)CC3=O)CC[C@]12C`, for which the Activity in series [2] worked out at 410 a.u; in series [3] it was 220 a.u; in [4], 70%; in series [5], 40%; in series [6], 330 a.u; in series [7], 60%. Also, the Activity in series [10] came out at 500 a.u; in series [12], 50%; in [13], 100%. Besides, the CC50 at 48 h in series [14] and in series [15] was 55 µM each time. In addition, the result in [16], in series [17] and in series [18] was Active.
